Results taken from PubChem BioAssay (NCI).
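Results reflect a 48-hour exposure of cells in 96-well plates to compound at five concentrations. Abbreviation: GI50, concentration required for 50% inhibition of growth. The concentration for full growth arrest is given as TGI.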

Experiments:
Experiment in all cases: NCI tumour cell line growth inhibition, 48 h
[1] = tested on: ACHN renal
[2] = tested on: KM12 colon
[3] = tested on: A549 NSCLC
[4] = tested on: SR leukemia
[5] = tested on: MDA-MB-435
[6] = tested on: NCI-H23 lung
[7] = tested on: HOP-62 NSCLC
[8] = tested on: SNB-19 CNS
[9] = tested on: OVCAR-8 ovarian
[10] = tested on: SK-MEL-28 melanoma
[11] = tested on: SW-620 colon
[12] = tested on: T-47D breast
[13] = tested on: IGROV1 ovarian
[14] = tested on: MOLT-4 leukemia
[15] = tested on: M14 melanoma
[16] = tested on: MCF7 breast
[17] = tested on: SK-MEL-5 melanoma
[18] = tested on: OVCAR-5 ovarian
[19] = tested on: NCI/ADR-RES ovarian
[20] = tested on: LOX IMVI melanoma
[21] = tested on: SF-295 CNS
[22] = tested on: RPMI-8226 leukemia
[23] = tested on: DU-145 prostate
[24] = tested on: NCI-H460 lung
[25] = tested on: COLO 205 colon
[26] = tested on: HOP-92 NSCLC
[27] = tested on: BT-549 breast
[28] = tested on: SF-268 CNS
[29] = tested on: CAKI-1 renal
[30] = tested on: MDA-N
[31] = tested on: RXF 393 renal
[32] = tested on: SK-MEL-2 melanoma
[33] = tested on: HL-60(TB) leukemia
[34] = tested on: CCRF-CEM leukemia
[35] = tested on: K-562 leukemia
[36] = tested on: NCI-H226 lung
[37] = tested on: MDA-MB-231 breast
[38] = tested on: EKVX NSCLC
[39] = tested on: SF-539 CNS
[40] = tested on: UO-31 renal
[41] = tested on: MALME-3M melanoma
[42] = tested on: UACC-62 melanoma
[43] = tested on: SNB-75 CNS
[44] = tested on: HCT-116 colon
[45] = tested on: HCT-15 colon
[46] = tested on: U251 CNS
[47] = tested on: HCC-2998 colon
[48] = tested on: UACC-257 melanoma
[49] = tested on: HS 578T breast
[50] = tested on: OVCAR-4 ovarian
[51] = tested on: NCI-H522 lung
[52] = tested on: PC-3 prostate
[53] = tested on: OVCAR-3 ovarian
[54] = tested on: SK-OV-3 ovarian
[55] = tested on: 786-0 renal
[56] = tested on: SN12C renal
[57] = tested on: HT29 colon
[58] = tested on: TK-10 renal
[59] = tested on: A498 renal

For `NC(N)=NS(=O)(=O)c1ccc(NC(=O)c2ccc3nc4ccccc4c(N)c3c2)cc1`, the TGI [1] was > 100 µM, the TGI [2] was > 100 µM and the TGI [3] was > 100 µM. The TGI [4] was > 100 µM, the TGI [5] was > 100 µM and the TGI [6] was > 100 µM. The TGI [7] was > 100 µM, the TGI [8] was > 100 µM and the TGI [9] was > 100 µM. For the same compound, the TGI [10] was > 100 µM, the TGI [11] was > 100 µM and the TGI [12] was > 100 µM. For the same compound, the TGI [13] was > 100 µM, the TGI [14] was > 100 µM and the TGI [15] was > 100 µM. The TGI [16] was > 100 µM, the TGI [17] was > 100 µM and the TGI [18] was > 100 µM. For the same compound, the TGI [19] was > 100 µM, the TGI [20] was > 100 µM and the TGI [21] was > 100 µM. For the same compound, the TGI [22] was > 100 µM, the TGI [23] was > 100 µM and the TGI [24] was > 100 µM. For the same compound, the TGI [25] was > 100 µM, the TGI [26] was > 100 µM and the TGI [27] was > 100 µM. For the same compound, the TGI [28] was > 100 µM, the TGI [29] was > 100 µM and the TGI [30] was > 100 µM. For the same compound, the TGI [31] was > 100 µM, the TGI [32] was > 100 µM and the TGI [33] was > 100 µM. The TGI [34] was > 100 µM, the TGI [35] was > 100 µM and the TGI [36] was > 100 µM. The TGI [37] was > 100 µM, the TGI [38] was > 100 µM and the TGI [39] was > 100 µM. For the same compound, the TGI [40] was > 100 µM, the TGI [41] was > 100 µM and the TGI [42] was > 100 µM. The TGI [43] was > 100 µM, the TGI [44] was > 100 µM and the TGI [45] was > 100 µM. For the same compound, the TGI [46] was > 100 µM, the TGI [47] was > 100 µM and the TGI [48] was > 100 µM. The TGI [49] was > 100 µM, the TGI [50] was > 100 µM and the TGI [51] was > 100 µM. For the same compound, the TGI [52] was > 100 µM, the TGI [53] was > 100 µM and the TGI [54] was > 100 µM. The TGI [55] was > 100 µM, the TGI [56] was > 100 µM and the TGI [57] was > 100 µM. For the same compound, the TGI [58] was > 100 µM.
For `CC[C@H]1C=CCC[C@@]2(C[C@@H]3CC[C@@H]4[C@H](C(=O)OCCCCCCCCCCCCCCCC(=O)N(CCCNC(C)=O)C[C@H](CCNC(C)=O)OC(C)=O)[C@]5(CCC[C@@H](C)O5)NC(=[N+]34)N2)O1`, the TGI [1] was 1.37 µM, the TGI [2] was 1.75 µM and the TGI [3] was 1.36 µM. For the same compound, the TGI [4] was 0.416 µM, the TGI [5] was 0.545 µM and the TGI [6] was 2.93 µM. For the same compound, the TGI [7] was 1.84 µM, the TGI [8] was 2.22 µM and the TGI [9] was 2.48 µM. For the same compound, the TGI [10] was 2.52 µM, the TGI [11] was 2.14 µM and the TGI [12] was 2.77 µM. For the same compound, the TGI [13] was 1.9 µM, the TGI [14] was 1.66 µM and the TGI [15] was 0.34 µM. For the same compound, the TGI [16] was 1.37 µM, the TGI [17] was 0.647 µM and the TGI [18] was 1.8 µM. For the same compound, the TGI [19] was 8.18 µM, the TGI [20] was 0.0709 µM and the TGI [21] was 1.46 µM. It also gave a GI50 [22] of 0.0406 µM, a TGI [22] of 0.242 µM and a TGI [23] of 1.59 µM. The TGI [59] was 1.09 µM, the TGI [24] was 1.14 µM and the TGI [25] was 0.955 µM. For the same compound, the TGI [26] was 0.32 µM, the TGI [27] was 2.93 µM and the TGI [28] was 1.14 µM. For the same compound, the TGI [29] was 1.86 µM, the TGI [30] was 1.36 µM and the TGI [31] was 1.02 µM. For the same compound, the TGI [32] was 0.338 µM, the TGI [33] was 1.34 µM and the TGI [34] was 0.0469 µM. The TGI [35] was 3.81 µM, the TGI [36] was 1.88 µM and the TGI [37] was 1.93 µM. It also gave a TGI [38] of 1.89 µM, a TGI [39] of 1.59 µM and a TGI [40] of 2.46 µM. It also gave a TGI [41] of 0.568 µM, a TGI [42] of 0.246 µM and a TGI [44] of 1.24 µM. For the same compound, the TGI [45] was 2.78 µM, the TGI [46] was 1.11 µM and the TGI [47] was 0.221 µM. It also gave a TGI [48] of 0.291 µM, a TGI [49] of 1.72 µM and a TGI [50] of 1.84 µM. The TGI [51] was 0.287 µM, the TGI [52] was 1.18 µM and the TGI [53] was 2.03 µM. It also gave a TGI [54] of 2.73 µM, a TGI [55] of 0.426 µM and a TGI [56] of 2.1 µM. For the same compound, the TGI [57] was 0.998 µM and the TGI [58] was 2.07 µM.
`COc1cc(Nc2nc3ccccc3nc2C(C)C)cc(OC)c1OC` was tested, and the TGI [1] was > 100 µM, the TGI [2] was > 100 µM and the TGI [3] was > 100 µM. For the same compound, the TGI [4] was > 100 µM, the TGI [5] was > 100 µM and the TGI [6] was > 100 µM. The TGI [7] was > 100 µM, the TGI [8] was > 100 µM and the TGI [9] was > 100 µM. For the same compound, the TGI [10] was > 100 µM, the TGI [11] was > 100 µM and the TGI [12] was > 100 µM. The TGI [13] was > 100 µM, the TGI [14] was > 100 µM and the TGI [15] was > 100 µM. For the same compound, the TGI [16] was > 100 µM, the TGI [17] was > 100 µM and the TGI [18] was > 100 µM. For the same compound, the TGI [19] was > 100 µM, the TGI [20] was > 100 µM and the TGI [21] was > 100 µM. For the same compound, the TGI [22] was > 100 µM, the TGI [23] was > 100 µM and the TGI [59] was > 100 µM. For the same compound, the TGI [24] was > 100 µM, the TGI [25] was > 100 µM and the TGI [26] was > 100 µM. The TGI [27] was > 100 µM, the TGI [28] was > 100 µM and the TGI [29] was > 100 µM. The TGI [30] was > 100 µM, the TGI [31] was > 100 µM and the TGI [32] was > 100 µM. The TGI [33] was > 100 µM, the TGI [34] was > 100 µM and the TGI [35] was > 100 µM. For the same compound, the TGI [36] was > 100 µM, the TGI [37] was > 100 µM and the TGI [38] was > 100 µM. The TGI [39] was > 100 µM, the TGI [40] was > 100 µM and the TGI [41] was > 100 µM. The TGI [42] was > 100 µM, the TGI [43] was > 100 µM and the TGI [44] was > 100 µM. For the same compound, the TGI [45] was > 100 µM, the TGI [46] was > 100 µM and the TGI [47] was > 100 µM. For the same compound, the TGI [48] was > 100 µM, the TGI [49] was > 100 µM and the TGI [50] was > 100 µM. For the same compound, the TGI [51] was > 100 µM, the TGI [52] was > 100 µM and the TGI [53] was > 100 µM. The TGI [54] was > 100 µM, the TGI [55] was > 100 µM and the TGI [56] was > 100 µM. The TGI [57] was > 100 µM and the TGI [58] was > 100 µM.
